Here are results for 3 molecules from patent US20030166202A1, “P450 Monooxygenases of the cyp79 family” (priority 2000, published 2003).

One data set concerns the target CYP79F1 (Arabidopsis thaliana, UniProt Q949U1, M2A). The conditions noted are these: E. coli C43(DE3) spheroplasts, GC-MS or TLC. How it is done: In a typical enzyme assay, 5 μl spheroplasts and 4 μl NADPH:cytochrome P450 reductase (equivalent to 0.04 units defined as 1 μmol cytochrome c/min) are incubated with substrate in buffer containing 30 mM KPi, pH 7.5, 3 mM NADPH, 3 mM reduced glutathione, 0.042% Tween 80, 1 mg ml^−1 L-α-dilauroylphosphatidylcholine in a total volume of 30 μl. Reaction mixtures containing spheroplasts of E. coli C43(DE3) transformed with empty vector are used as controls in all assays. 3.3 μM L-[U-^14C]phenylalanine (453 mCi/mmol; Pharmacia), 3.7 μM L-[U-^14C]tyrosine (449 mCi/mmol; Pharmacia), 0.1 mM L-[methyl-^14C]methionine (56 mCi/mmol; Pharmacia), and 24 μM L-[side chain-3-^14C]tryptophan (56.5 mCi/mmol; NEN) are tested as potential substrates. After incubation at 28° C. for 1 hour, half of the reaction mixture is analyzed by TLC on Silica Gel 60 F254 sheets (Merck) using toluene/ethyl acetate 5:1 (v/v) as eluent. Radiolabelled bands are visualized and quantified using a STORM 840 phosphoimager (Pharmacia). For GC-MS analysis, 450 μl reaction mixture containing 3.3 mM L-methionine (Sigma), 3.3 mM DL-dihomomethionine or 3.3 mM DL-trihomomethionine, respectively, are incubated for 4 hours at 25° C. and extracted with a total volume of 600 μl CHCl3. The organic phase is collected, evaporated, and the residue is dissolved in 15 μl CHCl3 and analyzed by GC-MS. […] An SGE column (BPX5, 25 m×0.25 mm, 0.25 μm film thickness) is used (heat pressure 100 kPa, splitless injection). The oven temperature program is as follows: 80° C. for 3 minutes, 80° C. to 180° C. at 5° C. min^−1, 180° C. to 300° C. at 20° C. min^−1, and 300° C. for 10 min. The ion source is run in EI mode (70 eV) at 200° C. […] DL-dihomomethionine, DL-trihomomethionine, 5-methylthiopentanaldoxime and 6-methylthiohexanaldoxime are synthesized as described (Dawson et al, J. Biol. Chem. 268: 27154-27159, 1993) and authenticated by NMR spectroscopy.

For a further data set, the target named is T1, CYP79B2 (Arabidopsis thaliana, UniProt O81346).
T1 sequence (O81346 1-541): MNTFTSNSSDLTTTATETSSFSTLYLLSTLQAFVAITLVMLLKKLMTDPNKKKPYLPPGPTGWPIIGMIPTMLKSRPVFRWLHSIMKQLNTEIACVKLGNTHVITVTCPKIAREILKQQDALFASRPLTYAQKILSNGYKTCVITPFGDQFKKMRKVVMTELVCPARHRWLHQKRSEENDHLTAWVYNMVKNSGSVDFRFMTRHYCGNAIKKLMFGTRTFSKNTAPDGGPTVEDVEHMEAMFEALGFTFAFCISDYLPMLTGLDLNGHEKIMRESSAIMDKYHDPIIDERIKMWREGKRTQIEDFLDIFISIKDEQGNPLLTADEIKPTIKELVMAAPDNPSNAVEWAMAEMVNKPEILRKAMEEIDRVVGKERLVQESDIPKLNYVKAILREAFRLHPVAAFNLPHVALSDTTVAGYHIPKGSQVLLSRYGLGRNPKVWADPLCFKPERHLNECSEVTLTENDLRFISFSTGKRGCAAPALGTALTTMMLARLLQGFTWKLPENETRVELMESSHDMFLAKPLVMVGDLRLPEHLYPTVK
Kind of data set: CYP79B2 activity in E. coli spheroplasts reconstituted with NADPH:cytochrome P450 reductase.

For the next data set, the target named is T2, CYP79A2 (Arabidopsis thaliana, UniProt Q9FLC8).
T2 sequence (Q9FLC8 7-529 limits assumed): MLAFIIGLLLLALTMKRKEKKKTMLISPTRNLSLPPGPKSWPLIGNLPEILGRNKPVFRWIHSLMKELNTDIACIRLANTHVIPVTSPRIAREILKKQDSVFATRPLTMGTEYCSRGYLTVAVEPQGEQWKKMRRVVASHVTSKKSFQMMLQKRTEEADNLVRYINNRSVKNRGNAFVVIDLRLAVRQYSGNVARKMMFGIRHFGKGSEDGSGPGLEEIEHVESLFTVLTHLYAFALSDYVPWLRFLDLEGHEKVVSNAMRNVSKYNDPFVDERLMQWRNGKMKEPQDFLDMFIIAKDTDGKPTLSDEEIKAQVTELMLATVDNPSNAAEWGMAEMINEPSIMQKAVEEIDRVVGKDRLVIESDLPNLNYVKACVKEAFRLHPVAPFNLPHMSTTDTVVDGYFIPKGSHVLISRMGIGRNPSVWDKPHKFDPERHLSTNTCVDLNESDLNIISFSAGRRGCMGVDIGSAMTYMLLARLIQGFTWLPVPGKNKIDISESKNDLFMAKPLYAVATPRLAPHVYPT
Kind of data set: CYP79A2 activity in E. coli spheroplasts reconstituted with NADPH:cytochrome P450 oxidoreductase.

The nature of data set [1]: Non-enzymatic conversion of tryptophan under oxidative conditions. The conditions noted are these: 100 mM H2O2, 1 mM MnCl2, 800 μM 2,4-dichlorophenol in 50 mM Tricine buffer, pH 8.0, no enzyme.
Substrate in data set [2]: N[C@@H](Cc1ccccc1)C(=O)O
Kind of data set: purified protein, by the assay type. The conditions noted are these: other: spheroplasts expressing 'native' CYP79A2, 2 hours at 26° C., pH 7.5.

Substrate in data set [3]: N[C@@H](Cc1c[nH]c2ccccc12)C(=O)O
In words: purified protein, by the assay type. The following applies: other: native CYP79B2 construct; pH 7.9.

CYP79F1, sequence (Q949U1 whole entry M2A): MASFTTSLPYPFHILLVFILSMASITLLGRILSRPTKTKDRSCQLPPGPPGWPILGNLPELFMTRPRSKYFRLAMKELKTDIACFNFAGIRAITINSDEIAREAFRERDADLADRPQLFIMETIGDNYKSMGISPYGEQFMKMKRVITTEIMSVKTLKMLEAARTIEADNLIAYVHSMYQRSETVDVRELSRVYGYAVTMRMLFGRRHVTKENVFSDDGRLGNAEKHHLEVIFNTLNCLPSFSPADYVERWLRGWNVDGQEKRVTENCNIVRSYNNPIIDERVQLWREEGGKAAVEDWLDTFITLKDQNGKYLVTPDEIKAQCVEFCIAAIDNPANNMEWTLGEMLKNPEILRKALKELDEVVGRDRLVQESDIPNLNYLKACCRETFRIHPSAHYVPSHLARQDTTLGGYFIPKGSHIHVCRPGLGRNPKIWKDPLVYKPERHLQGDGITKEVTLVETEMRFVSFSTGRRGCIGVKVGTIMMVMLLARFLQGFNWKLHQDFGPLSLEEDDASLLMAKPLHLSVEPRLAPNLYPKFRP

For `N[C@@H](Cc1c[nH]c2ccccc12)C(=O)O` [L-tryptophan], the “formation of the corresponding aldoxime by CYP79F1” value at CYP79F1 is listed as “did not result in the formation of detectable amounts of the corresponding aldoximes”. The Vmax at CYP79B2 (native CYP79B2 construct) amounted to 97.2 pmol/h/μl spheroplast. Further, on CYP79B2 (radiolabelled amino acid, TLC), the “oxime production by CYP79B2” value is given as “production of a strong band that co-migrates with authentic IAOX standard”. In addition, the “production of the respective aldoxime by CYP79A2” value at CYP79A2 was “does not result in production of detectable amounts of the respective aldoximes”. Further, the “conversion rate to compound co-migrating with IAOX relative to CYP79B2” value in data set [1] is “approximately 0.7%”.

B1: CYP79A2 (Arabidopsis thaliana) (protein)
chain: MLAFIIGLLLLALTMKRKEKKKTMLISPTRNLSLPPGPKSWPLIGNLPEILGRNKPVFRWIHSLMKELNTDIACIRLANTHVIPVTSPRIAREILKKQDSVFATRPLTMGTEYCSRGYLTVAVEPQGEQWKKMRRVVASHVTSKKSFQMMLQKRTEEADNLVRYINNRSVKNRGNAFVVIDLRLAVRQYSGNVARKMMFGIRHFGKGSEDGSGPGLEEIEHVESLFTVLTHLYAFALSDYVPWLRFLDLEGHEKVVSNAMRNVSKYNDPFVDERLMQWRNGKMKEPQDFLDMFIIAKDTDGKPTLSDEEIKAQVTELMLATVDNPSNAAEWGMAEMINEPSIMQKAVEEIDRVVGKDRLVIESDLPNLNYVKACVKEAFRLHPVAPFNLPHMSTTDTVVDGYFIPKGSHVLISRMGIGRNPSVWDKPHKFDPERHLSTNTCVDLNESDLNIISFSAGRRGCMGVDIGSAMTYMLLARLIQGFTWLPVPGKNKIDISESKNDLFMAKPLYAVATPRLAPHVYPT
B1: the Km in data set [2] amounted to 6.7 μmol I^−1.

B2: CYP79B2 (Arabidopsis thaliana) (protein)
chain: MNTFTSNSSDLTTTATETSSFSTLYLLSTLQAFVAITLVMLLKKLMTDPNKKKPYLPPGPTGWPIIGMIPTMLKSRPVFRWLHSIMKQLNTEIACVKLGNTHVITVTCPKIAREILKQQDALFASRPLTYAQKILSNGYKTCVITPFGDQFKKMRKVVMTELVCPARHRWLHQKRSEENDHLTAWVYNMVKNSGSVDFRFMTRHYCGNAIKKLMFGTRTFSKNTAPDGGPTVEDVEHMEAMFEALGFTFAFCISDYLPMLTGLDLNGHEKIMRESSAIMDKYHDPIIDERIKMWREGKRTQIEDFLDIFISIKDEQGNPLLTADEIKPTIKELVMAAPDNPSNAVEWAMAEMVNKPEILRKAMEEIDRVVGKERLVQESDIPKLNYVKAILREAFRLHPVAAFNLPHVALSDTTVAGYHIPKGSQVLLSRYGLGRNPKVWADPLCFKPERHLNECSEVTLTENDLRFISFSTGKRGCAAPALGTALTTMMLARLLQGFTWKLPENETRVELMESSHDMFLAKPLVMVGDLRLPEHLYPTVK
As to B2, the Km in data set [3] worked out at 21 µM.
